Experimental data taken from patent publication US20170281651A1, “CONCOMITANT ADMINISTRATION OF GLUCOCORTICOID RECEPTOR MODULATORS AND CYP3A OR STEROIDOGENESIS INHIBITORS” (Corcept Therapeutics, Inc., priority 2017, published 2017).
Like-named read-outs stand apart in the source and are kept apart here.

Assay: Example 1: effect of oral ketoconazole (400 mg OD or 200 mg BID) on plasma pharmacokinetics of a 300 mg single dose of mifepristone, fasted
Type: in vivo, human
Settings: for Cmax / AUC(0-t) / half-life / Tmax: male, human, plasma, oral; for AUC(0-t): read-out: AUCt (AUC0-24 hours, mean); for half-life: read-out: T1/2 (mean) (converted); for Tmax: read-out: Tmax (median)
Excerpt: This study was an open-label study in healthy male subjects.
Healthy male volunteers between the ages of 18 to 45 years of age with a body mass index (BMI) ranging between 19 and 32 kg/m2 and a weight of at least 60 kg (132 lbs) were enrolled. Subjects had no clinically significant abnormal findings on the physical examination, ECG, blood pressure, heart rate, medical history, or clinical laboratory results during screening. The QTc interval at screening was less than 450 msec.
In cohort 1, six subjects received ketoconazole 400 mg OD for 14 days.
Subjects remained in the clinic on Days 2 and 3 to receive 400 mg OD oral ketoconazole fasted, and for safety evaluation and collection of blood pharmacokinetic (PK) samples. Subjects were discharged from the clinic on Day 4 following administration of 400 mg OD oral ketoconazole fasted, and returned to the clinic the mornings of Days 5 through 13 to receive 400 mg OD oral ketoconazole fasted.
In cohort 2, six subjects received ketoconazole 200 mg BID for 14 days. […] All 12 subjects completed the study. Cohort 2 subjects participated in a Screening visit to assess eligibility and a check-in Day (Day −1) during which eligibility was re-confirmed. […] The evening of Day 1, subjects received 200 mg oral ketoconazole. Subjects remained in the clinic on Days 2, 3 and 4 to receive 200 mg BID oral ketoconazole, and for safety evaluation and collection of blood pharmacokinetic (PK) samples. Subjects were discharged from the clinic on Day 4 following evening administration of 200 mg oral ketoconazole, and returned to the clinic the morning and evening of Days 5 through 13 to receive 200 mg BID oral ketoconazole. Morning doses of ketoconazole on Days 0-13 were administered in the fasted state.
Subjects in both cohorts returned to the study center on Day 15 for safety monitoring, and completion of the Termination Visit procedures, followed by discharge from the study. Safety was assessed by spontaneously reported adverse events, physical examinations, and routine clinical laboratory tests. To the extent possible, any adverse events deemed study drug-related and that were ongoing at the time of discharge from the study were followed-up to resolution or until a determination is made that the unresolved event was stable.
Descriptive statistics (count, mean, median, standard deviation, minimum, maximum, and % coefficient of variation) were provided. […] Comparisons with previous study data were made.

[1] = C2/C1 (Keto 200 mg BID vs 400 mg OD)
[2] = MIFE 300 mg single dose fasted + Keto 200 mg BID (Cohort 2)
[3] = MIFE 300 mg single dose fasted + Keto 400 mg OD (Cohort 1)

In the case of `CC#C[C@]1(O)CC[C@H]2[C@@H]3CCC4=CC(=O)CCC4=C3[C@@H](c3ccc(N(C)C)cc3)C[C@@]21C` [mifepristone, 11β-(4-dimethylaminophenyl)-17β-hydroxy-17α-(1-propynyl)-estra-4,9-dien-3-one], the “Mean Ratio AUCtotal (AUCinf, geometric mean ratio)” value [1] is reported as 1.05, the “Mean Ratio Cmax (geometric mean ratio)” value [1] is reported as 1.15 and the “Terminal half-life Cohort 2 versus Cohort 1” value (Keto 200 mg BID vs 400 mg OD) is reported as “approximately the same”. For the same molecule, the “Tmax Cohort 2 versus Cohort 1” value (Keto 200 mg BID vs 400 mg OD) was “shorter”, the “AUCtot (AUCtotal, mean)” value [2] was 130925 ng·h/mL and the “AUCtot (AUCtotal, mean)” value [3] was 116939 ng·h/mL. It also gave a Cmax [2] of 4140 ng/mL, an AUC(0-t) [2] of 40600 ng·h/mL and a half-life [2] of 37.4 h. For the same molecule, the Tmax [2] was 1 h, the Cmax [3] was 3400 ng/mL and the AUC(0-t) [3] was 38100 ng·h/mL. It also gave a half-life [3] of 37.1 h and a Tmax [3] of 2 h.
